Measurements reported in patent US6686391B2, “N-chlorophenylcarbamate and N-chlorophenylthiocarbamate compositions” (University of Arizona Foundation, priority 1995, dated 2004).
Converted amounts (≈) assume the structure as drawn. Like-named read-outs stand apart in the source and are kept apart here.

What was measured:
[1] = system: HIV; assay: Acute HIV study, in vitro acute model; type: cell-based; settings: in vitro acute model for HIV
Procedure: In an in vitro acute model for HIV chloropropham inhibited viral replication by 47% at 10 μg/ml and AZT inhibited viral replication by 98% at 1 μg/ml. The therapeutic index for chloropropham is 2.5 compared to 12,500 for AZT. The therapeutic index is ratio of toxic dose of the drug to the efficacious dose of the drug.

[2] = system: HIV replication in monocytes (chronic HIV-1 infected promonocytic cells U1); assay: HIV chronic study, chronically HIV-1 infected promonocytic U1 cells; type: cell-based
Procedure: (§1) Chronic HIV-1 infected promonocytic cells U1 were derived from an acute HIV-1 infection of the promonocytic cell line, U937. The chronic HIV-1 infected T-cells, ACH-2, were derived from an acute HIV-1 infection of the T cell line, A3.01.
(§2) These cells were cultured in medium and the phorbol ester, PMA. PMA causes the cells (both U1 and ACH-2) to be activated and not divide but it also causes the U-1 cells to differentiate. […] Cell viability was measured when these cell lines were treated with the test compounds.
(§3) Both cell lines constituitively produce a small amount of HIV-1. ACH-2 cell lines tend to produce more HIV-1 than U1 cells as shown by p-24 ELISA. When either cell line is cultured in the presence of PMA there is an increase in the quantity of HIV-1 produced as measured by the p-24 antigen ELISA.
(§4) In addition, the number of […] positive HIV mRNA expressing cells per microscopic field is measured. Comparisons can be made from these numbers since the same number of cells were adhered to the glass slides for each drug concentration (10×10^6 cells/ml).

[3] = system: Fibroblasts; assay: EC-50 in normal healthy cells, fibroblasts; type: cell-based; settings: Fibroblast
[4] = system: breast cells (MX1); assay: MTT cell viability test, breast cells; type: cell-based; settings: Homo sapiens, 120 h
Procedure: (§5) The following cell culture tests were performed to test the toxicity of N-chlorophenylcarbamates and N-chlorophenylthiocarbamates compounds on colon, breast and lung human tumor cells. The viability of the cells were tested by looking at MTT (3-[4,5-dimethylthiazol-2-yl]-2,5-diphenyltetrazolium bromide) reduction. MTT assay is a well known measure of cell viability.
(§6) The colon tumor cells (HT29 from American Type Culture Collection (ATCC)) and the breast cells (MX1 from cell lines from ATCC) were cultured in Eagle's Minimal Essential Medium with 10% fetal bovine serum. The lung tumor cells (A549 from ATCC cell lines) were cultured in Ham's F12 medium with 10% fetal bovine serum.
(§7) The tumor cells were passaged and seeded into culture flasks at the desired cell densities. The culture medium was decanted and the cell sheets were washed twice with phosphate buffered saline (PBS). The cells were trypsinized and triturated prior to seeding the flasks. Unless otherwise indicated the cultures were incubated at 37±1° C. in a humidified atmosphere of 5±1% carbon dioxide in air. The cultures were incubated until they were 50-80% confluent.
(§8) The cells were subcultured when the flasks were subconfluent. The medium was aspired from the flasks and the cell sheets rinsed twice with PBS. Next, the Trypsin Solution was added to each flask to cover the cell sheet. The Trypsin Solution was removed after 30-60 seconds and the flasks were incubated at room temperature for two to six minutes. When 90% of the cells became dislodged, growth medium was added. The cells were removed by trituration and transferred to a sterile centrifuge tube. The concentration of cells in the suspension was determined, and an appropriate dilution was made to obtain a density of 5000 cells/ml. The cells were subcultured into the designated wells of the 96-well bioassay plates (200 microliter cell suspension per well). PBS was added to all the remaining wells to maintain humidity. The plates were then incubated overnight before test article treatment.
(§9) Each dose of test article was tested by treating quadruplicate wells of cultures with 100 microliter of each dilution. Those wells designated as solvent controls received an additional 100 microliters of methanol control; negative controls wells received an additional 100 microliters of treatment medium. PBS was added to the remaining wells not treated with test article or medium. The plates were then incubated for approximately 5 days. […]
(§10) The absorbance at 550 nm (OD550) of each well was measured with a Molecular Devices (Menlo Park, Calif.) VMax plate reader.
(§11) The mean OD550 of the solvent control wells and that of each test article dilution, and that of each of the blank wells and the positive control were calculated. […]

[5] = system: Broncheal Cells; assay: EC-50 in normal healthy cells, bronchial cells; type: cell-based
[6] = system: Kerotinoyle Cells; assay: EC-50 in normal healthy cells, keratinocytes; type: cell-based; settings: Keratinocyte
[7] = system: colon tumor cells (HT29); assay: MTT cell viability test, colon tumor cells; type: cell-based; settings: Homo sapiens, HT-29, 120 h
Procedure: as §5, §6, §7, §8, §9, §10, §11

[8] = system: lung tumor cells (A549); assay: MTT cell viability test, lung tumor cells; type: cell-based; settings: Homo sapiens, A549, 120 h
Procedure: as §5, §6, §7, §8, §9, §10, §11

[9] = system: leukemia (P388); assay: In vivo mouse model for leukemia
[10] = system: influenza; assay: In vivo model for influenza
[11] = system: Rhinovirus; assay: In vivo Rhinovirus screening test
[12] = system: murine melanoma (B16); assay: In vivo mouse model for murine melanoma
[13] = system: HIV replication in T-cells (chronic HIV-1 infected T-cells, ACH-2); assay: HIV chronic study, chronically HIV-1 infected ACH-2 T-cells; type: cell-based; settings: chronic HIV model, ACH-2 cells
Procedure: as §1, §2, §3, §4

[14] = system: influenza; assay: In vitro model for influenza; type: cell-based
[15] = system: herpes; assay: In vitro herpes screening model; type: cell-based
[16] = system: breast cancer (MXI); assay: In vivo mouse model for breast cancer
[17] = doses from 50-400 mg/kg; 1958, 1959, 1972; cited from earlier work
[18] = system: herpes; assay: In vivo herpes screening test; parameters: species or system mice
Procedure: In an in vivo herpes screening test, at a dose of 150 mg/kg dose, 60% of the mice survived with a 10.2 mean death date. The positive control was acyclovir at 75 mg/kg dose; 60% of the mice survived with a mean death date of 17.2 days.

[19] = system: breast, colon, non-small cell lung and ovarian tumors; assay: In vitro human tumor colony forming units test, continuous exposure; type: cell-based
Procedure: Solid tumors removed from patients are minced into 2 to 5 mm fragments and immediately placed in McCoy's Medium 5A plus 10% heat inactivated newborn calf serum plus 1% penicillin/streptomycin. Within 4 hours, these solids tumors are mechanically disassociated with scissors, forced through No. 100 stainless steel mesh, through 25 gauge needles, and then washed with McCoy's medium as described above. Ascitic, pleural, pericardial fluids and bone marrow are obtained by standard techniques. The fluid or marrow is placed in sterile containers containing 10 units of preservative free heparin per ml. of malignant fluid or marrow. After centrifugation at 150×g for 10 minutes, the cells are harvested and washed with McCoy's medium plus 10% heat inactivated calf serum. The viability of cell suspensions is determined on a hemocytometer with trypan blue.
Cells to be cloned are suspended in 0.3% agar in enriched CMRL1066 supplemented with 15% heat inactivated horse serum, penicillin (100 units/ml), streptomycin (2 mg/ml), glutamine (2 mM), insulin (3 units/ml), asparagine (0.6 mg/ml), and HEPES buffer (2 mM). For the continuous exposure test each compound is added to the above mixture. […] If there is <30% colonies in the positive control when compared to the untreated control, the test is evaluated.

[20] = 75 mg/kg dose, positive control

Cc1cn([C@H]2C[C@H](N=[N+]=[N-])[C@@H](CO)O2)c(=O)[nH]c1=O [AZT, reference compound]
inhibition of viral replication ([1]; 1 μg/ml): 98%
action in the HIV chronic model [2]: no action

COc1cccc2c1C(=O)c1c(O)c3c(c(O)c1C2=O)C[C@@](O)(C(=O)CO)C[C@@H]3O[C@H]1C[C@H](N)[C@H](O)[C@H](C)O1 [Adriamycin, doxorubicin (adriamycin), reference compound]
EC50 ([3]; normal healthy cells, first value, read-out: EC-50 Fibroblasts): 0.065 µg/mL (≈ 0.12 µM)
EC50 ([3]; normal healthy cells, second value, read-out: EC-50 Fibroblasts): 0.1 µg/mL (≈ 0.184 µM)
EC50 ([4]; MTT, 5 day incubation, first MX1 column, read-out: EC-50 Result MX1): 0.02 µg/mL (≈ 0.0368 µM)
EC50 ([4]; MTT, 5 day incubation, second MX1 column, read-out: EC-50 Result MX1): 0.001 µg/mL (≈ 0.00184 µM)
EC50 ([5]; normal healthy cells, first value, read-out: EC-50 Broncheal Cells): 0.015 µg/mL (≈ 0.0276 µM)
EC50 ([5]; normal healthy cells, second value, read-out: EC-50 Broncheal Cells): 0.002 µg/mL (≈ 0.00368 µM)
EC50 ([6]; normal healthy cells, first value, read-out: EC-50 Kerotinoyle Cells): 0.0035 µg/mL (≈ 0.00644 µM)
EC50 ([6]; normal healthy cells, second value, read-out: EC-50 Kerotinoyle Cells): 0.0093 µg/mL (≈ 0.0171 µM)
EC50 ([7]; MTT, 5 day incubation, first HT29 column, read-out: EC-50 Result HT29): 0.003 µg/mL (≈ 0.00552 µM)
EC50 ([7]; MTT, 5 day incubation, second HT29 column, read-out: EC-50 Result HT29): 0.006 µg/mL (≈ 0.011 µM)
EC50 ([8]; MTT, 5 day incubation, first A549 column, read-out: EC-50 Result A549): 0.03 µg/mL (≈ 0.0552 µM)
EC50 ([8]; MTT, 5 day incubation, second A549 column, read-out: EC-50 Result A549): 0.009 µg/mL (≈ 0.0166 µM)

CC(C)OC(=O)Nc1cccc(Cl)c1 [Chloropropham, (3-chlorophenyl)carbamic acid 1-methylethyl ester]
activity in in vivo mouse model for leukemia (P388) [9]: no activity
activity in in vivo model for influenza [10]: did not show activity
EC50 ([3]; read-out: EC-50 Fibroblasts, normal healthy cells, first value): > 152 µg/mL
EC50 ([3]; read-out: EC-50 Fibroblasts, normal healthy cells, second value): 64.2 µg/mL (≈ 300 µM)
activity in in vivo Rhinovirus screening test [11]: Nor was it active
activity in in vivo mouse model for murine melanoma (B16) [12]: no activity
EC50 ([4]; read-out: EC-50 Result MX1, MTT, 5 day incubation, first MX1 column): 91.8 µg/mL (≈ 430 µM)
EC50 ([4]; read-out: EC-50 Result MX1, MTT, 5 day incubation, second MX1 column): 108 µg/mL (≈ 505 µM)
increase in HIV replication in T-cells [13]: 101%
activity in in vitro model for influenza [14]: did not show activity
inhibition at 10 µg/mL ([1]; Human immunodeficiency virus 1, 10 μg/ml, read-out: inhibition of viral replication): 47%
EC50 ([5]; read-out: EC-50 Broncheal Cells, normal healthy cells, second value): > 15.2 µg/mL
activity in in vitro herpes screening model [15]: Nor was it active
activity in in vivo mouse model for breast cancer (MXI) [16]: no activity
suppression of HIV replication in monocytes ([2]; chronic HIV model, U1 cells): 79%
activity in National Cancer Institute tests [17]: no activity
mean death date ([18]; 150 mg/kg dose): 10.2
mice survived ([18]; 150 mg/kg dose): 60%
EC50 ([6]; read-out: EC-50 Kerotinoyle Cells, normal healthy cells, first value): 3.9 µg/mL (≈ 18.3 µM)
EC50 ([6]; read-out: EC-50 Kerotinoyle Cells, normal healthy cells, second value): 13 µg/mL (≈ 60.8 µM)
EC50 ([7]; read-out: EC-50 Result HT29, MTT, 5 day incubation, first HT29 column): 13.3 µg/mL (≈ 62.2 µM)
EC50 ([7]; read-out: EC-50 Result HT29, MTT, 5 day incubation, second HT29 column): 11.4 µg/mL (≈ 53.4 µM)
effective against tumors (fraction) ([19]; 100 μg/ml, continuous exposure, breast, colon, non-small cell lung and ovarian tumors): 6/7
effectiveness against tumors ([19]; 1 and 10.0 μg/ml): not effective
EC50 ([8]; read-out: EC-50 Result A549, MTT, 5 day incubation, first A549 column): 12.6 µg/mL (≈ 59 µM)
EC50 ([8]; read-out: EC-50 Result A549, MTT, 5 day incubation, second A549 column): 92.5 µg/mL (≈ 433 µM)

Nc1nc2c(ncn2COCCO)c(=O)[nH]1 [acyclovir, reference compound]
mean death date [18, 20]: 17.2 days
mice survived [18, 20]: 60%
